Assay results reported in patent publication US10670605B2, “Cysteine reactive probes and uses thereof” (The Scripps Research Institute, priority 2015, dated 2020).

Key:
Test in all cases: Competitive isoTOP-ABPP, cell lysates
Type in all cases: binding
Details in all cases: 500 μm, in-vitro_ramos_231
ACAT1 C413 (P24752) = biological target: T1, ACAT1 C413 (P24752) (Homo sapiens, UniProt P24752)
T1 sequence (P24752 34-427): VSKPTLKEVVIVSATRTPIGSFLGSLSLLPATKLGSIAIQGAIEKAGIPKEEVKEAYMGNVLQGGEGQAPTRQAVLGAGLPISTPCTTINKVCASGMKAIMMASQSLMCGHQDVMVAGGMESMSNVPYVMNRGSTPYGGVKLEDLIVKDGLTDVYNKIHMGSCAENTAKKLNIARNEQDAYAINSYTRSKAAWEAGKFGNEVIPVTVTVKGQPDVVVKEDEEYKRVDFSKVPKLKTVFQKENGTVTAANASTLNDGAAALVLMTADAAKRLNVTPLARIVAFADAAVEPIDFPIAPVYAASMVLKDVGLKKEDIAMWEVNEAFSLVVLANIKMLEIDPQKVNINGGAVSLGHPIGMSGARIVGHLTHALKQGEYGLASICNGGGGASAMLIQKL

ACAT1 C119 (P24752) = biological target: T2, ACAT1 C119 (P24752) (Homo sapiens, UniProt P24752)
T2 sequence (P24752 34-427): T1 sequence (P24752 34-427)

UBE2L3 C86 (P68036) = UBE2L3 C86 (P68036) (Homo sapiens, UniProt P68036)
Method: (§1) TEV digests were pressure loaded onto a 250 μm (inner diameter) fused silica capillary column packed with C18 resin (Aqua 5 μm, Phenomenex). The samples were analyzed by multidimensional liquid chromatography tandem mass spectrometry (MudPIT), using an LTQ-Velos Orbitrap mass spectrometer (Thermo Scientific) coupled to an Agilent 1200-series quaternary pump. The peptides were eluted onto a biphasic column with a 5 μm tip (100 μm fused silica, packed with C18 (10 cm) and bulk strong cation exchange resin (3 cm, SCX, Phenomenex,)) in a 5-step MudPIT experiment, using 0%, 30%, 60%, 90%, and 100% salt bumps of 500 mM aqueous ammonium acetate and using a gradient of 5-100% buffer B in buffer A (buffer A: 95% water, 5% acetonitrile, 0.1% formic acid; buffer B: 5% water, 95% acetonitrile, 0.1% formic acid) as has been described in Weerapana et al. Nat Protoc 2:1414-1425 (2007). Data was collected in data-dependent acquisition mode with dynamic exclusion enabled (20 s, repeat of 2). One full MS (MS1) scan (400-1800 m/z) was followed by 30 MS2 scans (ITMS) of the nth most abundant ions.
(§2) The ratios of heavy/light for each unique peptide (DMSO/compound treated; isoTOP-ABPP ratios, R values) were quantified with in-house CIMAGE software, using default parameters (3 ms s per peak and signal to noise threshold 2.5). Site-specific engagement of electrophilic fragments was assessed by blockade of IA-alkyne probe labeling. […] Ratios for unique peptide entries were calculated for each experiment; overlapping peptides with the same modified cysteine (e.g. different charge states, MudPIT chromatographic steps or tryptic termini) were grouped together and the median ratio was reported as the final ratio (R). The peptide ratios reported by CIMAGE were further filtered to ensure the removal or correction of low quality ratios in each individual dataset. The quality filters applied were the following: removal of half tryptic peptides; for ratios with high standard deviations from the median (90% of the median or above) the lowest ratio was taken instead of the median; removal of peptides with R=20 and only a single ms2 event triggered during the elution of the parent ion; manual annotation of all the peptides with ratios of 20, removing any peptides with low-quality elution profiles that remained after the previous curation steps. Proteome reactivity values for individual fragments were computed as the percentage of the total quantified cysteine-containing peptides with R values≥4 (defined as liganded cysteines) for each replicate experiment and the final proteome reactivity value was calculated as the mean for all replicate experiments for each fragment from both MDA-MB-231 and Ramos cellular proteomes.
(§3) Biological replicates of the same compound and cell-line were averaged if the standard deviation was below 60% of the mean; otherwise the lowest value of the ratio set was taken.

SMARCC2 C145 (Q8TAQ2) = SMARCC2 C145 (Q8TAQ2) (Homo sapiens, UniProt Q8TAQ2)
Method: as §1, §2, §3

GNB2L1 C182 (P63244) = GNB2L1 C182 (P63244) (Homo sapiens, UniProt P63244)
Method: as §1, §2, §3

SAMHD1 C522 (Q9Y3Z3) = SAMHD1 C522 (Q9Y3Z3) (Homo sapiens, UniProt Q9Y3Z3)
Method: as §1, §2, §3

GSTP1 C48 (P09211) = GSTP1 C48 (P09211) (Homo sapiens, UniProt P09211)
Method: as §1, §2, §3

ZNF217 C286 (O75362) = ZNF217 C286 (O75362) (Homo sapiens, UniProt O75362)
Method: as §1, §2, §3

PDIA6 C55 (Q15084) = biological target: T3, PDIA6 C55 (Q15084) (Homo sapiens, UniProt Q15084)
T3 sequence (Q15084 20-440): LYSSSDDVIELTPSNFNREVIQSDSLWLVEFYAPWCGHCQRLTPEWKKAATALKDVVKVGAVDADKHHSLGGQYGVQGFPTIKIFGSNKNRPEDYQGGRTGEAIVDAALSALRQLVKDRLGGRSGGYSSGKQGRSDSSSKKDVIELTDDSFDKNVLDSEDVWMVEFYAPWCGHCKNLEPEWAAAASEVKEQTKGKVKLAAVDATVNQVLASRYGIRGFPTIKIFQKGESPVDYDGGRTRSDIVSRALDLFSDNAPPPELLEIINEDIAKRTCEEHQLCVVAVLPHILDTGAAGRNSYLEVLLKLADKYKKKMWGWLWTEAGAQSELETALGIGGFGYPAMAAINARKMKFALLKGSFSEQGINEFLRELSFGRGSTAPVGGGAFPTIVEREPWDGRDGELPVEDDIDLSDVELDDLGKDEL
Method: as §1, §2, §3

PDIA6 C190 (Q15084) = biological target: T4, PDIA6 C190 (Q15084) (Homo sapiens, UniProt Q15084)
T4 sequence (Q15084 20-440): T3 sequence (Q15084 20-440)
Method: as §1, §2, §3

XPO1 C34 (O14980) = XPO1 C34 (O14980) (Homo sapiens, UniProt O14980)
Method: as §1, §2, §3

UBE2S C118 (Q16763) = biological target: T5, UBE2S C118 (Q16763) (Homo sapiens, UniProt Q16763)
T5 sequence (Q16763 1-222): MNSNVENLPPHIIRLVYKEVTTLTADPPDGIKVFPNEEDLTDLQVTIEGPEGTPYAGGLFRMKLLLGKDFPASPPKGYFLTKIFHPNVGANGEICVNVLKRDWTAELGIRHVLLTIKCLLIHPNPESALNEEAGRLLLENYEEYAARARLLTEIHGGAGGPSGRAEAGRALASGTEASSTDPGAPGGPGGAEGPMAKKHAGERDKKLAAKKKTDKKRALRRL
Method: as §1, §2, §3

PRMT1 C109 (Q99873) = PRMT1 C109 (Q99873) (Homo sapiens, UniProt Q99873)
Method: as §1, §2, §3

PDE12 C108 (Q6L8Q7) = biological target: T6, PDE12 C108 (Q6L8Q7) (Homo sapiens, UniProt Q6L8Q7)
T6 sequence (Q6L8Q7 43-609): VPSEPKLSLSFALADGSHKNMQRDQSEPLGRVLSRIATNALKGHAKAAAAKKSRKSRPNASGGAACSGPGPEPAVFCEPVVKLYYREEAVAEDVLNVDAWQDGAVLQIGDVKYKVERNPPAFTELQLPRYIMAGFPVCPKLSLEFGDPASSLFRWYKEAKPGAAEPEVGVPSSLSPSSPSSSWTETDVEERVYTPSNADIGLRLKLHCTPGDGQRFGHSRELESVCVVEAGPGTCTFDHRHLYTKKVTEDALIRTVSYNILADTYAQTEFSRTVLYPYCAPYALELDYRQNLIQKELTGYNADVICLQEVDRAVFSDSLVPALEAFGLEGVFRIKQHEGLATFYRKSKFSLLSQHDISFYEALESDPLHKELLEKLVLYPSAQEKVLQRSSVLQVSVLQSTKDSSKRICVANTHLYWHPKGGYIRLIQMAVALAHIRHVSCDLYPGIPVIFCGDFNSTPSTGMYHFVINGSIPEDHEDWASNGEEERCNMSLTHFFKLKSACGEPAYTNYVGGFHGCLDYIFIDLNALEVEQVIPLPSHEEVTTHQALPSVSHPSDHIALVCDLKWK
Method: as §1, §2, §3

ACAT1 C196 (P24752) = biological target: T7, ACAT1 C196 (P24752) (Homo sapiens, UniProt P24752)
T7 sequence (P24752 34-427): T1 sequence (P24752 34-427)

IDH2 C308 (P48735) = biological target: T8, IDH2 C308 (P48735) (Homo sapiens, UniProt P48735)
T8 sequence (P48735 40-452): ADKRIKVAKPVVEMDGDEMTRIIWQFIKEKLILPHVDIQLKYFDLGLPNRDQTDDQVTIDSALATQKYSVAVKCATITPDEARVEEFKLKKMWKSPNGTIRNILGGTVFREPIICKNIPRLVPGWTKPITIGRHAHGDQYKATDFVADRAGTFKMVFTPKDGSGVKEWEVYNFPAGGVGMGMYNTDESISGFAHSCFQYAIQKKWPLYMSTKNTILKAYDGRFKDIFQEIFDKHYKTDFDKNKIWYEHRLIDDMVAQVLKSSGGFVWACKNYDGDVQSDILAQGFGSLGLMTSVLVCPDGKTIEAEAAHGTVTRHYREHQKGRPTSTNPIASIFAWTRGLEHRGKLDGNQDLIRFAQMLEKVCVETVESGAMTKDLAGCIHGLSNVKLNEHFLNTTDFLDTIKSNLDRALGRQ
Method: as §1, §2, §3

IDH1 C269 (O75874) = IDH1 C269 (O75874) (Homo sapiens, UniProt O75874)
Method: as §1, §2, §3

isoTOP-ABPP reactivity ratio, P24752_C413 (ACAT1 C413 (P24752)) | isoTOP-ABPP reactivity ratio, P24752_C119 (ACAT1 C119 (P24752)) | isoTOP-ABPP reactivity ratio, P68036_C86 (UBE2L3 C86 (P68036)) | isoTOP-ABPP reactivity ratio, Q8TAQ2_C145 (SMARCC2 C145 (Q8TAQ2)) | isoTOP-ABPP reactivity ratio, P63244_C182 (GNB2L1 C182 (P63244)) | isoTOP-ABPP reactivity ratio, Q9Y3Z3_C522 (SAMHD1 C522 (Q9Y3Z3)) | isoTOP-ABPP reactivity ratio, P09211_C48 (GSTP1 C48 (P09211)) | isoTOP-ABPP reactivity ratio, O75362_C286 (ZNF217 C286 (O75362)) | isoTOP-ABPP reactivity ratio, Q15084_C55 (PDIA6 C55 (Q15084)) | isoTOP-ABPP reactivity ratio, Q15084_C190 (PDIA6 C190 (Q15084)) | isoTOP-ABPP reactivity ratio, O14980_C34 (XPO1 C34 (O14980)) | isoTOP-ABPP reactivity ratio, Q16763_C118 (UBE2S C118 (Q16763)) | isoTOP-ABPP reactivity ratio, Q99873_C109 (PRMT1 C109 (Q99873)) | isoTOP-ABPP reactivity ratio, Q6L8Q7_C108 (PDE12 C108 (Q6L8Q7)) | isoTOP-ABPP reactivity ratio, P24752_C196 (ACAT1 C196 (P24752)) | isoTOP-ABPP reactivity ratio, P48735_C308 (IDH2 C308 (P48735)) | isoTOP-ABPP reactivity ratio, O75874_C269 (IDH1 C269 (O75874)) | SMILES
2.7 | 1.7 | 1.9 | 1.2 | 1.0 | 1.1 | 2.0 | 20.0 | 3.9 | 7.0 | 1.3 | 1.4 | 1.5 | 3.2 | 3.0 |  |  | COC(=O)C1Cc2ccccc2CN1C(=O)CCl (stereo not drawn) [compound 39]
2.7 | 1.2 |  |  | 1.3 |  | 1.6 |  |  |  | 1.3 |  | 1.0 |  | 1.5 | 1.3 | 1.7 | O=C(CCl)Nc1cc(C(=O)O)cc(C(F)(F)F)c1 [compound 36]
